Experimental findings from patent US9833497B2, “Human originated EGF domain proteins and use of the same” (CHENGDU SOURCEBIO LIMITED-LIABILITY COMPANY, priority 2013, dated 2017) are described below.

What all share (assay type): cell-based
The subject of one experiment is Enterobacter cloacae. As to the kind of experiment: MIC against Gram-negative bacteria: Enterobacter cloacae. The conditions noted are these: 5×10^5 CFU/mL. Summed up:
(§1)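 The recombinant human-originated EGF domain proteins were serially diluted two-fold against bacteria at 5×10^5 CFU/mL in LB medium. After shaken incubation at 37° C, the lowest concentration with no bacterial growth was recorded as the MIC.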

The subject of another experiment is Citrobacter diversus. As to the kind of experiment: MIC against Gram-negative bacteria: Citrobacter diversus. The following applies: 5×10^5 CFU/mL. Summed up: as §1
The test system of the next experiment is E. coli BL21. Put plainly: MIC against Gram-negative bacteria: E. coli BL21. The following applies: 5×10^5 CFU/mL. Summed up:
as §1

For a further experiment, the system named is Pseudomonas aeruginosa. Put plainly: MIC against Gram-negative bacteria: Pseudomonas aeruginosa. The conditions noted are these: 5×10^5 CFU/mL. Summed up: as §1
The test system of the next experiment is Proteus vulgaris. Put plainly: MIC against Gram-negative bacteria: Proteus vulgaris. The conditions noted are these: 5×10^5 CFU/mL. In short, it runs like this:
as §1

The next experiment has as its system Serratia marcescens. Put plainly: MIC against Gram-negative bacteria: Serratia marcescens. The following applies: 5×10^5 CFU/mL. In short, it runs like this:
as §1

The next experiment has as its system Klebsiella pneumonia. Put plainly: MIC against Gram-negative bacteria: Klebsiella pneumonia. The following applies: 5×10^5 CFU/mL. In short, it runs like this: as §1
The next experiment relates to E. coli DH5α. As to the kind of experiment: Antibacterial activity: MIC and growth curve against E. coli DH5α in 96-well plate. The following applies: minimal inhibitory concentration against E. coli DH5α; 96-well plate, 5×10^5 CFU/mL, 37° C., judged after 8 h. In short, it runs like this: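 Log-phase DH5α (OD600 about 0.5, 37° C, 185 rpm in LB) was pelleted, resuspended in fresh LB and seeded at 5×10^5 CFU/mL with recombinant protein at 50, 25 and 12.5 μg/mL (two-fold series), in triplicate. Plates were shaken at 175 rpm, 37° C, and OD600 was read every 30 min. MIC was the lowest concentration with no growth.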

In a further experiment the test system is Aeromonas hydrophila. As to the kind of experiment: MIC against Gram-negative bacteria: Aeromonas hydrophila. The conditions noted are these: 5×10^5 CFU/mL. Summed up: as §1
A further experiment deals with Moraxella catarrhalis. Put plainly: MIC against Gram-negative bacteria: Moraxella catarrhalis. The conditions noted are these: 5×10^5 CFU/mL. In short, it runs like this: as §1
The next experiment relates to Proteus mirabilis. Put plainly: MIC against Gram-negative bacteria: Proteus mirabilis. The following applies: 5×10^5 CFU/mL. In short, it runs like this:
as §1

Where [1] appears, read: Enterobacter cloacae, 96-well plate, 37° C., 10 h.
[2] abbreviates: Citrobacter diversus, 96-well plate, 37° C., 10 h.
[3] abbreviates: E. coli BL21, 96-well plate, 37° C., 10 h.
Setting [4] is: Pseudomonas aeruginosa, 96-well plate, 37° C., 10 h.
Where [5] appears, read: Proteus vulgaris, 96-well plate, 37° C., 10 h.
The mark [6] stands for this setting: Serratia marcescens, 96-well plate, 37° C., 10 h.
Setting [7] is: Klebsiella pneumonia, 96-well plate, 37° C., 10 h.
[8] abbreviates: Aeromonas hydrophila, 96-well plate, 37° C., 10 h.
[9] abbreviates: Moraxella catarrhalis, 96-well plate, 37° C., 10 h.
Where [10] appears, read: Proteus mirabilis, 96-well plate, 37° C., 10 h.
Setting [11] is: Enterobacter cloacae, 10 h cultivation at 37° C.
Setting [12] is: Citrobacter diversus, 10 h cultivation at 37° C.
Where [13] appears, read: E. coli BL21, 10 h cultivation at 37° C.
The mark [14] stands for this setting: Pseudomonas aeruginosa, 10 h cultivation at 37° C.
Setting [15] is: Proteus vulgaris, 10 h cultivation at 37° C.
Setting [16] is: Serratia marcescens, 10 h cultivation at 37° C.
Setting [17] is: Klebsiella pneumonia, 10 h cultivation at 37° C.
Setting [18] is: Aeromonas hydrophila, 10 h cultivation at 37° C.
Setting [19] is: Moraxella catarrhalis, 10 h cultivation at 37° C.
Setting [20] is: Proteus mirabilis, 10 h cultivation at 37° C.

As to “PRT1257 (CMNKDHGCAHICRETPKGGVACDCRPGFDLAQNQKDC; listed as Homo sapiens)”, in the experiment on Enterobacter cloacae (setting [1]), the “MIC against E. cloacae” value stood at 25 µg/mL. Besides, in the experiment with Citrobacter diversus (setting [2]), the “MIC against C. diversus” value was found to be 50 µg/mL. In the experiment with E. coli BL21 (setting [3]), the “MIC against E. coli BL21” value is 50 µg/mL. Moreover, in the experiment on Pseudomonas aeruginosa (setting [4]), the “MIC against P. aeruginosa” value worked out at 25 µg/mL. The “MIC against P. vulgaris” value with Proteus vulgaris (setting [5]) was found to be 12.5 µg/mL. In addition, the “MIC against S. marcescens” value against Serratia marcescens (setting [6]) is 50 µg/mL. Besides, in the experiment on Klebsiella pneumonia (setting [7]), the “MIC against K. pneumonia” value turned out to be 12.5 µg/mL. Further, the minimum inhibitory concentration (MIC) (in general, the lowest concentration found to suppress growth) in the experiment on E. coli DH5α was found to be 12.5 µg/mL. Also, in the experiment on Aeromonas hydrophila (setting [8]), the “MIC against A. hydrophila” value worked out at 25 µg/mL. Further, the “MIC against M. catarrhalis” value against Moraxella catarrhalis (setting [9]) turned out to be 12.5 µg/mL. Also, in the experiment with Proteus mirabilis (setting [10]), the “MIC against P. mirabilis” value stood at 50 µg/mL.

Turning to “PRT518 (CACPLNIPSNNFSPTCHLDRSLGLICDGCPVGYTGPRCERCAEGYFGQPSVPGGSCQP; listed as Homo sapiens)”, the “MIC against E. cloacae” value in the experiment with Enterobacter cloacae (96-well plate, 37° C., 10 h) came to 50 µg/mL. The “MIC against C. diversus” value against Citrobacter diversus (96-well plate, 37° C., 10 h) worked out at 12.5 µg/mL. For the same substance, the “MIC against E. coli BL21” value with E. coli BL21 (96-well plate, 37° C., 10 h) was found to be 25 µg/mL. Moreover, the “MIC against P. aeruginosa” value with Pseudomonas aeruginosa (96-well plate, 37° C., 10 h) was determined as 12.5 µg/mL. Besides, in the experiment with Proteus vulgaris (96-well plate, 37° C., 10 h), the “MIC against P. vulgaris” value came out at 25 µg/mL. The “MIC against S. marcescens” value in the experiment with Serratia marcescens (96-well plate, 37° C., 10 h) was 12.5 µg/mL. Moreover, the “MIC against K. pneumonia” value with Klebsiella pneumonia (96-well plate, 37° C., 10 h) amounted to 25 µg/mL. The substance further showed a minimum inhibitory concentration (MIC) against E. coli DH5α of 50 µg/mL. Moreover, the “MIC against A. hydrophila” value against Aeromonas hydrophila (96-well plate, 37° C., 10 h) came to 25 µg/mL. In the experiment with Moraxella catarrhalis (96-well plate, 37° C., 10 h), the “MIC against M. catarrhalis” value came to 25 µg/mL. Further, in the experiment with Proteus mirabilis (96-well plate, 37° C., 10 h), the “MIC against P. mirabilis” value came to 12.5 µg/mL.

Take “PRT1445 (PCLNDCGPYGQCLLLRRHSYLYASCSCKAGWRGWSCT; listed as Homo sapiens)”: the “MIC against E. cloacae” value in the experiment with Enterobacter cloacae (setting [11]) was found to be 50 µg/mL. In addition, the “MIC against C. diversus” value against Citrobacter diversus (setting [12]) was determined as 25 µg/mL. In the experiment with E. coli BL21 (setting [13]), the “MIC against E. coli BL21” value is 12.5 µg/mL. For the same substance, in the experiment on Pseudomonas aeruginosa (setting [14]), the “MIC against P. aeruginosa” value worked out at 50 µg/mL. In addition, the “MIC against P. vulgaris” value in the experiment on Proteus vulgaris (setting [15]) came out at 25 µg/mL. Further, the “MIC against S. marcescens” value in the experiment on Serratia marcescens (setting [16]) was 50 µg/mL. Besides, the “MIC against K. pneumonia” value against Klebsiella pneumonia (setting [17]) is 50 µg/mL. The MIC against E. coli DH5α was 50 µg/mL. In addition, in the experiment with Aeromonas hydrophila (setting [18]), the “MIC against A. hydrophila” value came out at 50 µg/mL. Moreover, the “MIC against M. catarrhalis” value in the experiment with Moraxella catarrhalis (setting [19]) was 25 µg/mL. In addition, the “MIC against P. mirabilis” value against Proteus mirabilis (setting [20]) turned out to be 50 µg/mL.

“PRT1436 (AERNCRNPELNPCSVNAQCIEERQGDVTCVCGVGWAGDGYICG; listed as Homo sapiens)”: in the experiment with Enterobacter cloacae (setting [11]), the “MIC against E. cloacae” value amounted to 12.5 µg/mL. The “MIC against C. diversus” value against Citrobacter diversus (setting [12]) amounted to 25 µg/mL. Besides, the “MIC against E. coli BL21” value against E. coli BL21 (setting [13]) is 12.5 µg/mL. The “MIC against P. aeruginosa” value against Pseudomonas aeruginosa (setting [14]) turned out to be 12.5 µg/mL. Besides, in the experiment with Proteus vulgaris (setting [15]), the “MIC against P. vulgaris” value came to 25 µg/mL. Besides, the “MIC against S. marcescens” value against Serratia marcescens (setting [16]) was 12.5 µg/mL. The “MIC against K. pneumonia” value against Klebsiella pneumonia (setting [17]) stood at 50 µg/mL. This substance came in with a minimum inhibitory concentration (MIC) in the experiment with E. coli DH5α of 12.5 µg/mL. The “MIC against A. hydrophila” value in the experiment with Aeromonas hydrophila (setting [18]) turned out to be 50 µg/mL. Besides, the “MIC against M. catarrhalis” value against Moraxella catarrhalis (setting [19]) amounted to 25 µg/mL. Moreover, the “MIC against P. mirabilis” value against Proteus mirabilis (setting [20]) was found to be 12.5 µg/mL.

As for “PRT111 (DLDECASRSKSGEEDPQPQCQHLCHNYVGGYFCSCRPGYELQEDTHSCQ; listed as Homo sapiens)”, the “MIC (μg/mL) E. cloacae” value in the experiment with Enterobacter cloacae (setting [1]) stood at 50 µg/mL. Also, the “MIC (μg/mL) C. diversus” value against Citrobacter diversus (setting [2]) was found to be 12.5 µg/mL. Further, the “MIC (μg/mL) E. coli BL21” value against E. coli BL21 (setting [3]) was determined as 12.5 µg/mL. Also, the “MIC (μg/mL) P. aeruginosa” value with Pseudomonas aeruginosa (setting [4]) was 12.5 µg/mL. The “MIC (μg/mL) P. vulgaris” value against Proteus vulgaris (setting [5]) was determined as 25 µg/mL. Also, in the experiment on Serratia marcescens (setting [6]), the “MIC (μg/mL) S. marcescens” value was determined as 12.5 µg/mL. The “MIC (μg/mL) K. pneumonia” value in the experiment with Klebsiella pneumonia (setting [7]) is 12.5 µg/mL. The substance further came in with a minimal inhibitory concentration (MIC) with E. coli DH5α of 12.5 µg/mL. In the experiment with Aeromonas hydrophila (setting [8]), the “MIC (μg/mL) A. hydrophila” value was found to be 25 µg/mL. For the same substance, in the experiment on Moraxella catarrhalis (setting [9]), the “MIC (μg/mL) M. catarrhalis” value was determined as 25 µg/mL. Further, in the experiment with Proteus mirabilis (setting [10]), the “MIC (μg/mL) P. mirabilis” value was 50 µg/mL.
